Test systems include HL-60; HT-29; NCI-H226; HCT-116; DU-145; EKVX; HCC 2998; BT-549; SK-OV-3; SF-295; HCT-15; NCI/ADR-RES; OVCAR-5; RPMI-8226; NCI-H460; A549; CCRF-CEM; PC-3; OVCAR-8; SW-620.
Common to all, as to experiment: NCI-60 cell line screen, 48 h

The structures appear in SMILES notation.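 Test compounds were applied to cells in 96-well plates for 48 hours at 5 doses. At the GI50, growth is halved.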 Activity calls are given as the source filed them. No stated cut-off is given here; in the data, active = GI50 up to about 1.1 µM and inactive = higher.

This is an account of results in ChEMBL document CHEMBL1201862, “PubChem BioAssay data set” (2004).

In the case of `Nc1ccc(C(=O)N/C(=C\c2cccc([N+](=O)[O-])c2)c2nc3c(O)nc(S)nc3[nH]2)cc1`, the GI50 with HL-60 was > 100 µM (inactive); with HT-29, > 100 µM (inactive); in the experiment on NCI-H226, > 51.8 µM (inactive); in the experiment with HCT-116, 81.3 µM (inactive); in the experiment with DU-145, > 100 µM (inactive); with EKVX it was > 84.9 µM (inactive). In addition, the GI50 is > 100 µM (inactive) in the experiment with HCC 2998; > 100 µM (inactive) in the experiment on BT-549; 22.8 µM (inactive) with SK-OV-3; 37.3 µM (inactive) in the experiment with SF-295; over 100 µM in the experiment on HCT-15; > 100 µM (inactive) with NCI/ADR-RES. The GI50 in the experiment with OVCAR-5 was > 100 µM (inactive); in the experiment on RPMI-8226, > 100 µM (inactive); in the experiment with NCI-H460, > 100 µM (inactive); in the experiment on A549, 74.3 µM (inactive); with CCRF-CEM it was > 100 µM (inactive); in the experiment on PC-3, > 100 µM (inactive). Moreover, the GI50 in the experiment on OVCAR-8 is 31 µM (inactive); in the experiment with SW-620, > 100 µM (inactive).

Regarding `CS(=O)(=O)OCCCCOS(=O)(=O)CF`, the GI50 is 33.5 µM (inactive) with HL-60; > 100 µM (inactive) in the experiment with HT-29; > 100 µM (inactive) in the experiment on NCI-H226; > 100 µM (inactive) with HCT-116; > 100 µM (inactive) in the experiment with DU-145; > 100 µM (inactive) with EKVX. The GI50 with HCC 2998 was > 100 µM (inactive); with BT-549, > 100 µM (inactive); in the experiment with SK-OV-3, > 100 µM (inactive); with SF-295 it was > 100 µM (inactive); in the experiment with HCT-15, over 100 µM; in the experiment on NCI/ADR-RES, > 100 µM (inactive). Further, the GI50 in the experiment on OVCAR-5 is > 100 µM (inactive); in the experiment with RPMI-8226 it was > 100 µM (inactive); in the experiment with NCI-H460, 56 µM (inactive); in the experiment on A549 it was > 100 µM (inactive); in the experiment on CCRF-CEM, 52.4 µM (inactive); in the experiment with PC-3, > 100 µM (inactive). Further, the GI50 in the experiment on OVCAR-8 and with SW-620 was > 100 µM (inactive) throughout.

`O=C1c2ccccc2CCC1C(O)(C(F)(F)F)C(F)(F)F` (stereo not given): the GI50 with HL-60 is > 10 µM (inactive); in the experiment with HT-29, > 100 µM (inactive); with NCI-H226 it was > 100 µM (inactive); in the experiment with HCT-116 it was > 100 µM (inactive); in the experiment on DU-145, > 100 µM (inactive); with EKVX it was > 100 µM (inactive). The GI50 in the experiment on HCC 2998 was 3.67 µM (inactive); in the experiment on BT-549, > 100 µM (inactive); with SK-OV-3, > 100 µM (inactive); in the experiment with SF-295 it was > 100 µM (inactive); with HCT-15, 63 µM; in the experiment with NCI/ADR-RES, > 100 µM (inactive). Besides, the GI50 in the experiment on OVCAR-5, in the experiment on RPMI-8226, in the experiment on NCI-H460, in the experiment on A549, in the experiment on CCRF-CEM and in the experiment on PC-3 was > 100 µM (inactive) each time. The GI50 in the experiment with OVCAR-8 and in the experiment with SW-620 was > 100 µM (inactive) in each case.

Regarding `CC(=O)NCCc1c[nH]c2ccc(Cl)cc12`, the GI50 in the experiment with HL-60, with HT-29, with NCI-H226, with HCT-116, in the experiment on DU-145 and in the experiment with EKVX was > 100 µM (inactive) throughout. The GI50 in the experiment with HCC 2998 was 74.8 µM (inactive); in the experiment with BT-549 it was 25 µM (inactive); in the experiment on SK-OV-3, > 100 µM (inactive); with SF-295, > 100 µM (inactive); with HCT-15 it was over 100 µM; with NCI/ADR-RES, > 100 µM (inactive). The GI50 in the experiment on OVCAR-5 was > 100 µM (inactive); in the experiment on RPMI-8226 it was > 100 µM (inactive); in the experiment with NCI-H460, > 100 µM (inactive); with A549, > 100 µM (inactive); with CCRF-CEM it was 60.4 µM (inactive); in the experiment with PC-3, > 100 µM (inactive). The GI50 in the experiment on OVCAR-8 and in the experiment with SW-620 was > 100 µM (inactive) throughout.

As to `CC(C)(C)c1c(C(C)(C)C)c(=O)c1=O`, the GI50 in the experiment on HL-60, with HT-29, in the experiment with NCI-H226, with HCT-116, with DU-145 and in the experiment on EKVX was > 100 µM (inactive) throughout. In addition, the GI50 in the experiment with HCC 2998 was > 100 µM (inactive); in the experiment with BT-549 it was > 100 µM (inactive); in the experiment with SK-OV-3, > 100 µM (inactive); in the experiment with SF-295 it was > 100 µM (inactive); in the experiment with HCT-15 it was over 100 µM; with NCI/ADR-RES, > 100 µM (inactive). Moreover, the GI50 in the experiment on OVCAR-5, with RPMI-8226, with NCI-H460, in the experiment on A549, with CCRF-CEM and in the experiment on PC-3 was > 100 µM (inactive) throughout. The GI50 with OVCAR-8 and in the experiment on SW-620 was > 100 µM (inactive) throughout.

Consider `O=C(CNC(=O)OCc1ccccc1)NCCCCC(NC(=O)OCc1ccccc1)C(=O)O` (stereo not given), for which the GI50 in the experiment on HL-60, in the experiment on HT-29, in the experiment with NCI-H226, with HCT-116, in the experiment on DU-145 and in the experiment with EKVX was > 100 µM (inactive) throughout. In addition, the GI50 in the experiment on HCC 2998 was > 100 µM (inactive); in the experiment with BT-549 it was > 100 µM (inactive); in the experiment with SK-OV-3, > 100 µM (inactive); with SF-295, > 100 µM (inactive); in the experiment on HCT-15, over 100 µM; in the experiment on NCI/ADR-RES, > 100 µM (inactive). Moreover, the GI50 in the experiment with OVCAR-5, in the experiment on RPMI-8226, with NCI-H460, in the experiment on A549, in the experiment on CCRF-CEM and in the experiment on PC-3 was > 100 µM (inactive) in each case. Further, the GI50 in the experiment with OVCAR-8 and in the experiment on SW-620 was > 100 µM (inactive) throughout.

In the case of `CC(C)(O)C1COC2=C1C(=O)c1ccccc1C2=O` (stereo not given), the GI50 is 18.9 µM (inactive) in the experiment on HL-60; 44.4 µM (inactive) with HT-29; 32.5 µM (inactive) with NCI-H226; 25.3 µM (inactive) with HCT-116; 20.9 µM (inactive) with DU-145; 32.3 µM (inactive) in the experiment on EKVX. In addition, the GI50 is > 100 µM (inactive) with HCC 2998; 18.2 µM (inactive) in the experiment with BT-549; > 100 µM (inactive) in the experiment on SK-OV-3; 42.5 µM (inactive) in the experiment with SF-295; 27.5 µM in the experiment on HCT-15; 19.1 µM (inactive) in the experiment on NCI/ADR-RES. The GI50 in the experiment on OVCAR-5 was 23.7 µM (inactive); with RPMI-8226, 44.8 µM (inactive); with NCI-H460, 54 µM (inactive); in the experiment with A549 it was > 100 µM (inactive); in the experiment with CCRF-CEM it was 46.2 µM (inactive); in the experiment with PC-3, 31.6 µM (inactive). For the same molecule, the GI50 is 22.5 µM (inactive) in the experiment with OVCAR-8 and 23 µM (inactive) in the experiment with SW-620.
